Assay results taken from US20050209201A1, “Method and composition for suppression of inflammation” (Shiseido Co., Ltd., priority 2004, published 2005).

Experiments:
[1] = system: IL-8 release from keratinocytes; experiment: ATP-induced IL-8 release from keratinocytes (ELISA); type: cell-based, human
Experimental: (§1) Commercially available keratinocytes (Kurabo) were cultured in KGM-2 medium (Kurabo) according to the manufacturer's manual. The cells were seeded in a 12-well plate at 1.5×10^5 cells/well.
(§2) The medium in the 12-well plate was discarded on the day after seeding of the cells, and 24 hours after adding 2 ml of test solution dissolved in fresh medium, the culture supernatants were collected. The IL-6, IL-8, IL-1α and TNF concentrations in the recovered supernatants were measured using a commercially available ELISA kit (R&D Systems, USA).
ATP (10 μM-1 mM) dissolved in the culture medium was applied as a test solution to keratinocytes, and after 24 hours the culture supernatants were recovered and the inflammatory cytokine IL-8 was assayed with an ELISA kit.

[2] = system: IL-8 gene expression in keratinocytes; experiment: IL-8 gene expression in keratinocytes (Taqman RT-PCR); type: cell-based, human; details: Taqman-PCR normalized to GAPDH
Experimental: as §1
(§3) Keratinocytes were treated with the test solution and cells treated for 6 hours were used. Total RNA was extracted from the cells by addition of ISOGEN (Nippon Gene) according to the manufacturer's manual. cDNA was prepared with M-MLV reverse transcriptase (Life Technologies, Rockville USA), using 1 μg of RNA as template.
(§4) The gene sequence of the obtained cDNA was determined quantitatively by Taqman-PCR using an ABI PRISM 7700 Sequence Detector (Perkin Elmer) according to the manufacturer's manual, in the manner described in paragraph 11 of Japanese Unexamined Patent Publication (Kokai) No. 11-32799. The result was normalized on the basis of the expression level of human GAPDH (glyceraldehyde-3-phosphate dehydrogenase) used as an internal standard.

[3] = system: IL-1α release from keratinocytes; experiment: ATP-induced IL-1α release from keratinocytes (ELISA); type: cell-based, human
Experimental: as §1, §2
ATP (10 μM-1 mM) dissolved in the culture medium was applied as a test solution to keratinocytes, and after 24 hours the culture supernatants were collected and the inflammatory cytokine IL-1α was assayed with an ELISA kit.

[4] = system: IL-6 release from keratinocytes; experiment: ATP-induced IL-6 release from keratinocytes (ELISA); type: cell-based, human
Experimental: as §1, §2
ATP (10 μM-1 mM) dissolved in the culture medium was applied as test solution to keratinocytes, and after 24 hours the culture supernatants were collected and the inflammatory cytokine IL-6 was assayed with the ELISA kit.

[5] = system: TNFα release from keratinocytes; experiment: ATP-induced TNFα release from keratinocytes (ELISA); type: cell-based, human
Experimental: as §1, §2
ATP (10 μM-1 mM) dissolved in the culture medium was applied as a test solution to keratinocytes, and after 24 hours the culture supernatants were recovered and the inflammatory cytokine TNFα was assayed with an ELISA kit.

[6] = system: IL-6 gene expression in keratinocytes; experiment: IL-6 gene expression in keratinocytes (Taqman RT-PCR); type: cell-based, human; details: Taqman-PCR normalized to GAPDH
Experimental: as §1, §3, §4

[7] = system: IL-8 release in ultraviolet irradiated keratinocytes; experiment: Release of cytokine IL-8 in ultraviolet irradiated keratinocytes (ELISA); type: cell-based, human
Experimental: as §1, §2
(§5) After discarding the medium, PBS(−) was added and UVB was irradiated at 30 or 60 mJ/cm^2. Following the irradiation, the PBS(−) was discarded, 2 ml of the medium or test solution dissolved in the medium was added, and the culture supernatants were collected after 24 hours.
Cells were exposed to ultraviolet irradiation. After 24 h, keratinocyte cell supernatants were collected and the content of IL-8 was assayed with an ELISA kit.

[8] = system: HR-1 mice; experiment: Confirmation test for inflammation suppressing effect: acetone barrier disruption in a dry environment, HE staining of dorsal skin; type: in vivo; details: dry environment (<10% RH), acetone-treated dorsal skin, coating with 1 mM Reactive blue 2, skin collected after 48 hours, control water
Experimental: After raising HR-1 mice for 48 hours in a dry environment (<10% RH), the dorsal skin was acetone-treated to disrupt its skin barrier function, and then the skin was applied with 1 mM Reactive blue 2. Control animals were applied with water. After an additional 48 hours, the dorsal skins of both animal groups were collected. The skin tissue was fixed with formaldehyde and subjected to hematoxylin-eosin (HE) staining and observed under an optical microscope.

[9] = system: IL-6 release in ultraviolet irradiated keratinocytes; experiment: Release of cytokine IL-6 in ultraviolet irradiated keratinocytes (ELISA); type: cell-based, human
Experimental: as §1, §2, §5
Cells were exposed to ultraviolet irradiation. After 24 h, keratinocyte cell supernatants were collected and the content of IL-6 was assayed with an ELISA kit.

[10] = ATP 10 μM-1 mM, 24 hours, ELISA, in proportion to ATP concentration
[11] = ATP 30-1000 μM, concentration-dependent
[12] = ATP 10 μM-1 mM, 24 hours, ELISA, in proportion to concentration
[13] = keratinocytes pretreated with 30-100 μM Reactive blue 2, ATP added 10 minutes later, supernatant after 24 hours, ELISA
[14] = UVB irradiation 10 minutes after pretreatment with 100 μM Reactive blue 2, supernatant after 24 h, ELISA
[15] = Reactive blue 2 100 μM, cells treated 6 hours
[16] = keratinocytes pretreated with 100 μM Reactive blue 2, ATP added 10 minutes later, supernatant after 24 hours, ELISA
[17] = pretreatment of the cells with suramin, data not shown

Nc1ncnc2c1ncn2[C@@H]1O[C@H](COP(=O)(O)OP(=O)(O)OP(=O)(O)O)[C@@H](O)[C@H]1O [ATP, adenosine triphosphate]
significantly increased: IL-8 expression over non-stimulated cells (controls) [2, 11] | IL-6 expression over non-stimulated cells (controls) [6, 11]
significant increase: IL-8 in culture supernatant after addition of ATP [1, 10] | IL-1α in culture supernatant after addition of ATP [3, 12] | IL-6 in culture supernatant after addition of ATP [4, 10] | TNFα in culture supernatant after addition of ATP [5, 12]

Nc1c(S(=O)(=O)O)cc(Nc2ccc(Nc3nc(Cl)nc(Nc4cccc(S(=O)(=O)O)c4)n3)c(S(=O)(=O)O)c2)c2c1C(=O)c1ccccc1C2=O [Reactive blue 2]
significantly inhibited: ATP-induced increase in IL-8 [1, 13] | ultraviolet irradiation-induced increase in IL-8 [7, 14] | ATP-induced increase in IL-8 gene expression [2, 15] | ATP-induced increase in IL-1α [3, 16] | ATP-induced increase in IL-6 [4, 13] | ATP-induced increase in TNFα [5, 16] | ultraviolet irradiation-induced increase in IL-6 [9, 14] | ATP-induced increase in IL-6 gene expression [6, 15]
inhibits the epidermal hyperplasia: epidermal hyperplasia after barrier disruption (HE staining) [8]

Cc1ccc(C(=O)Nc2ccc(S(=O)(=O)O)c3cc(S(=O)(=O)O)cc(S(=O)(=O)O)c23)cc1NC(=O)c1cccc(NC(=O)Nc2cccc(C(=O)Nc3cc(C(=O)Nc4ccc(S(=O)(=O)O)c5cc(S(=O)(=O)O)cc(S(=O)(=O)O)c45)ccc3C)c2)c1 [suramin]
similarly inhibited: increase in IL-8 release produced by ATP addition [1, 17] | increase in IL-8 release produced by ultraviolet irradiation [7, 17] | increase in IL-1α release produced by ATP addition [3, 17] | increase in IL-6 release produced by ATP addition [4, 17] | increase in TNFα release produced by ATP addition [5, 17] | increase in IL-6 release produced by ultraviolet irradiation [9, 17]
